≈ marks a conversion by molar mass, not a printed value. Read-outs that look alike come from different tables or passages of the source. No end group written: not given here.
What was measured:
[1] = tested on: Enterobacter aerogenes JCM 1235; experiment: microbe, parasite or virus in culture; type: cell-based; details: Table 4; two tests, first/second value where not identical
Experimental: (§1) Bacteria (Escherichia coli ATCC 25922, Pseudomonas aeruginosa ATCC 27853, Staphylococcus aureus ATCC29213, Klebsiella pneumoniae JCM 1662, Enterobacter cloacae JCM 1232, Enterobacter aerogenes JCM 1235 and Staphylococcus epidermidis JCM 2414) were inoculated to Mueller-Hinton broth: MHB or LB medium, and cultured at a temperature and period suited for each strain. From the thus obtained colonies, each strain was inoculated to a fresh liquid medium and cultured for 16 to 20 hours. Then an aliquot having a volume (10 to 50 appropriate to each strain was inoculated to a fresh liquid medium and cultured for 4 to 6 hours, followed by the measurement of the absorbance at 600 nm. After comparing the turbidity with McFarland #0.5, the resultant was diluted with a medium. Each strain was added to about 10^5 CFU/mL (final concentration). Each of the peptide solutions to be tested was diluted with MHB to obtain a solution of 128 μg/mL. […] As controls, tobramycin (TOB: aminoglucoside antibiotic), oxacillin (OX:β-lactam antibiotic), meropenem (MEPM: carbapenem antibiotic) and ciprofloxacin (new quinolone antibiotic) were used. […] To a 96-well microtiter plate, 0.1 mL of the inoculation solution and 0.1 mL of the peptide- or positive control-containing medium having the respective concentration were added, and cultured at 37° C. for 16 to 24 hours (or a time period suited for the growth of the respective strain). The well not containing the sample was used as a negative control. After the culturing, the growth was visually observed, and the minimum concentration at which the growth was inhibited was defined as the minimum growth inhibition concentration (MIC). The medium used in this test for bacteria was Mueller-Hinton broth. Independent experiments were carried out twice or more for each strain.

[2] = tested on: Escherichia coli ATCC 25922; experiment: microbe, parasite or virus in culture; type: cell-based
Experimental: as §1

[3] = tested on: Klebsiella pneumoniae JCM 1662; experiment: microbe, parasite or virus in culture; type: cell-based
Experimental: as §1

[4] = tested on: Pseudomonas aeruginosa ATCC 27853; experiment: microbe, parasite or virus in culture; type: cell-based
Experimental: as §1

[5] = tested on: Staphylococcus aureus ATCC29213; experiment: microbe, parasite or virus in culture; type: cell-based
Experimental: as §1

[6] = tested on: Staphylococcus epidermidis JCM 2414; experiment: microbe, parasite or virus in culture; type: cell-based
Experimental: as §1

[7] = tested on: Enterobacter cloacae JCM 1232; type: cell-based; details: Table 4; two tests, first/second value where not identical
Experimental: as §1

[8] = tested on: Pseudomonas aeruginosa 1 (clinical strain); experiment: microbe, parasite or virus in culture; details: Table 4; clinical strain; first/second value where not identical
Experimental: (§2) Bacteria (Escherichia coli ATCC 25922, Pseudomonas aeruginosa ATCC 27853, Staphylococcus aureus ATCC29213, Klebsiella pneumoniae JCM 1662, Enterobacter cloacae JCM 1232, Enterobacter aerogenes JCM 1235 and Staphylococcus epidermidis JCM 2414) were inoculated to Mueller-Hinton broth: MHB or LB medium, and cultured at a temperature and period suited for each strain. From the thus obtained colonies, each strain was inoculated to a fresh liquid medium and cultured for 16 to 20 hours. Then an aliquot having a volume (10 to 50 appropriate to each strain was inoculated to a fresh liquid medium and cultured for 4 to 6 hours, followed by the measurement of the absorbance at 600 nm. After comparing the turbidity with McFarland #0.5, the resultant was diluted with a medium. Each strain was added to about 10^5 CFU/mL (final concentration).
(§3) Further, the antibacterial activities against the clinical strains collected and isolated from infected patients were also examined. The tests were carried out for two methicillin-resistant Staphylococcus (MRSA) (MRSA (i) and (ii)), two methicillin-sensitive Staphylococcus (MSSA) (MSSA (i) and (ii)), five Pseudomonas aeruginosa, Pseudomonas aeruginosa 1, Pseudomonas aeruginosa 6, Pseudomonas aeruginosa 8. Pseudomonas aeruginosa 9 and Pseudomonas aeruginosa 12, totally 9 clinical strains. The MRSA and MSSA clinical strains were tested by the same method as Staphylococcus aureus ATCC29213, and Pseudomonas clinical strains were tested by the same method as Pseudomonas aeruginosa ATCC 27853.
(§4) Each of the peptide solutions to be tested was diluted with MHB to obtain a solution of 128 μg/mL. This solution was serially diluted with the medium to prepare peptide-containing media having concentrations of 128, 64, 32, 16, 8.0, 4.0 and 2.0 μg/mL respectively. […] By dilution with sterilized purified water to 1.0 mg/mL, positive control-containing media having concentrations of 16, 8, 4, 2, 1.0, 0.25, 0.12 and 0.06 μg/mL, respectively for TOB; 0.5, 0.12 and 0.06 μg/mL, respectively, for OX; and 16, 8, 4, 2, 1.0, 0.25, 0.12, 0.06, 0.06, 0.03 and 0.008 μg/mL, respectively, for MEPM, were prepared.
(§5) To a 96-well microtiter plate, 0.1 mL of the inoculation solution and 0.1 mL of the peptide- or positive control-containing medium having the respective concentration were added, and cultured at 37° C. for 16 to 24 hours (or a time period suited for the growth of the respective strain). The well not containing the sample was used as a negative control. After the culturing, the growth was visually observed, and the minimum concentration at which the growth was inhibited was defined as the minimum growth inhibition concentration (MIC).
(§6) The medium used in this test for bacteria was Mueller-Hinton broth. Independent experiments were carried out twice or more for each strain.

[9] = tested on: Pseudomonas aeruginosa 12 (clinical strain); experiment: microbe, parasite or virus in culture
Experimental: as §2, §3, §4, §5, §6

[10] = tested on: Pseudomonas aeruginosa 6 (clinical strain); experiment: microbe, parasite or virus in culture; details: Table 4; clinical strain; first/second value where not identical
Experimental: as §2, §3, §4, §5, §6

[11] = tested on: Pseudomonas aeruginosa 9 (clinical strain); experiment: microbe, parasite or virus in culture; details: Table 4; clinical strain; first/second value where not identical
Experimental: as §2, §3, §4, §5, §6

[12] = tested on: Pseudomonas aeruginosa 8 (clinical strain); details: Table 4; clinical strain; first/second value where not identical
Experimental: as §2, §3, §4, §5, §6

[13] = tested on: Escherichia coli ATCC 25922; experiment: ATP Assay (viability at 3 hours), Table 6; type: cell-based; details: 3 h, 5 μg/mL
Experimental: as §2, with “ATCC29213,” for “ATCC29213, Klebsiella pneumoniae JCM 1662, Enterobacter cloacae JCM 1232, Enterobacter aerogenes JCM 1235”, “50 μL)” for “50”
(§7) Each of the peptide solutions to be tested was diluted with the medium to obtain a solution of 10 μg/mL. As positive controls, tobramycin (TOB), oxacillin (OX) and meropenem (MEPM) were used. By dilution with sterilized purified water to 1.0 mg/mL, positive control-containing media having concentrations of […], respectively for TOB; 0.5, 0.12 and 0.06 μg/mL, respectively, for OX; and 1.0, 0.25, 0.12, 0.06, 0.03 and 0.008 μg/mL respectively, for MEPM, were prepared. To a 96-well microtiter plate, 0.1 mL of the inoculation solution and 0.1 mL of the peptide- or positive control-containing medium having the respective concentration were added, and cultured at 37° C. for 3 hours. The well not containing the sample was used as a negative control. After the culturing, ATP was measured using BacTiter-Glo Microbial Cell Viability Assay kit of PROMEGA, and compared with that in the negative control to obtain a relative value which was defined as a viability. The antibacterial activity was evaluated based on the viability at 3 hours later using ATP as an index.
(§8) The medium used in this test for bacteria was Mueller-Hinton broth. Independent experiments were carried out twice for each strain.

[14] = tested on: Pseudomonas aeruginosa ATCC 27853; experiment: ATP Assay (viability at 3 hours), Table 6; type: cell-based; details: 3 h, 5 μg/mL
Experimental: as §2, with “ATCC29213,” for “ATCC29213, Klebsiella pneumoniae JCM 1662, Enterobacter cloacae JCM 1232, Enterobacter aerogenes JCM 1235”, “50 μL)” for “50”
as §7, §8

[15] = tested on: Staphylococcus aureus ATCC29213; experiment: ATP Assay (viability at 3 hours), Table 6; type: cell-based; details: 3 h, 5 μg/mL
Experimental: as §2, with “ATCC29213,” for “ATCC29213, Klebsiella pneumoniae JCM 1662, Enterobacter cloacae JCM 1232, Enterobacter aerogenes JCM 1235”, “50 μL)” for “50”
as §7, §8

[16] = tested on: Aspergillus niger NBRC 9455; details: Table 4; two tests, first/second value where not identical
[17] = tested on: Cryptococcus neoformans IFM 46660
[18] = tested on: Rhizopus oryzae NBRC 31005; details: NBRC 31005
[19] = tested on: Fusarium solani JCM11383; details: Table 4; two tests, first/second value where not identical
[20] = tested on: Alternaria alternata JCM5800; details: Table 4; two tests, first/second value where not identical
[21] = tested on: Trichophyton mentagrophytes NBRC6124; details: Table 4; two tests, first/second value where not identical
[22] = tested on: Trichophyton rubrum NBRC9185; details: Table 4; two tests, first/second value where not identical
[23] = tested on: Candida krusei NBRC1395; details: Table 4; two tests, first/second value where not identical
[24] = Table 4, two tests, first/second value where not identical
[25] = Table 4, clinical strain, first/second value where not identical

Row | Compound | MIC Enterobacter aerogenes [1] | MIC Escherichia coli [2, 24] | MIC Klebsiella pneumoniae [3, 24] | MIC Staphylococcus aureus ([5]; ATCC29213) [µg/mL] | MIC Staphylococcus epidermidis ([6]; JCM 2414) [µg/mL] | MIC Enterobacter cloacae [7] | MIC Pseudomonas aeruginosa 1 [8] | MIC Pseudomonas aeruginosa 12 [9, 25] | MIC Pseudomonas aeruginosa 6 [10] | MIC Pseudomonas aeruginosa 9 [11] | MIC Pseudomonas aeruginosa 8 [12] | Escherichia coli ATP (viability, relative value to negative control) [13] | Pseudomonas aeruginosa ATP (viability, relative value to negative control) [14] | Staphylococcus aureus ATP (viability, relative value to negative control) [15] | MIC Aspergillus niger [16] | MIC Cryptococcus neoformans ([17]; IFM 46660) [µg/mL] | MIC Rhizopus oryzae [18] [µg/mL] | MIC Pseudomonas aeruginosa ([4]; ATCC 27853) [µg/mL] | also measured
1 | MLKLIFLHRLKRMRKRLKRK-NH2 [SRP-10] | 16/128 | 32/64 | 64/128 | 16 | 8 | 64/128 | 16/64 | 16/32 | 32/128 | 64/128 | 64/128 | 2.4 | 0.9 | 0.2 | 8/16 | 2 | 8 |  | MIC Pseudomonas aeruginosa [4, 24]: 16/32
2 | LKLIFLHRLKRMRKRLKRKL-NH2 [SRP-11] | 32/64 | 32/64 | 64/128 | 16 | 8 | 128< mg/mL | 16/32 |  | 16/32 | 16/32 | 16/32 | 3.8 | 0.8 | 0.3 | 8/32 | 2 | 8 | 16 | MIC Pseudomonas aeruginosa 12 ([9]; 12 (clinical strain)): 16 µg/mL
3 | MLKLIFLHRLKRMRKRLKRKLR-NH2 [SRP-9] | 16/64 |  |  |  |  | 16/64 | 16/32 | 16/32 | 16/64 | 32/128 | 8/32 | 2.6 | 0.8 | 0.2 | 16/32 |  | 8 | 16 | MIC Escherichia coli ([2]; ATCC 25922): 32 µg/mL; MIC Klebsiella pneumoniae ([3]; JCM 1662): 64 µg/mL; MIC Staphylococcus aureus [5, 24]: 16/32; MIC Staphylococcus epidermidis [6, 24]: 8/32; MIC Cryptococcus neoformans [17, 24]: 1/2
4 | C[C@@H]1[C@H](O)[C@@H](C)/C=C/C=C/C=C/C=C/C=C/C=C/C=C/[C@H](O[C@@H]2O[C@H](C)[C@@H](O)[C@H](N)[C@@H]2O)C[C@@H]2O[C@](O)(C[C@@H](O)C[C@@H](O)[C@H](O)CC[C@@H](O)C[C@@H](O)CC(=O)O[C@H]1C)C[C@H](O)[C@H]2C(=O)O [amphotericin B, reference compound] |  |  |  |  |  |  |  |  |  |  |  |  |  |  |  |  |  |  | MIC Fusarium solani [19]: 1000 µg/mL (≈ 1080 µM); MIC Alternaria alternata [20]: 1000 µg/mL (≈ 1080 µM); MIC Trichophyton mentagrophytes [21]: 125 µg/mL (≈ 135 µM); MIC Trichophyton rubrum [22]: 250 µg/mL (≈ 271 µM); MIC Candida krusei [23]: 2000 µg/mL (≈ 2160 µM)

Reference: patent publication US8470765B2, “Polypeptides and antibacterial or antiseptic use of same” (AnGes MG, Inc., priority 2009, dated 2013)
